Assay results published in patent publication EP0382875A1, “Dispersant for biologically active peptide” (Matuo, Yuhsy, priority 1989, dated 1990).

What was measured:
BALB/C3T3 cells [1] = experiment: Thermal stability of FGF at 50°C with or without CHAPS (FGF activity); assay type: physicochemical, mouse; conditions: FGF 5 µg/ml, 1% CHAPS, 50°C for 1 hour
Description: (§1) Next, examples of the present invention are shown. DNA synthesis activity or FGF activity of samples was determined by the method shown in Example 1 and expressed by cpm (counts per minute) x 10⁻⁴/well/3h.
(§2) BALB/C3T3 cells, a kind of fibroblasts established from a mouse fetus were suspended in 3% bovine serum-containing DME medium (DME-3% CS) at a concentration of 2 x 10⁴/ml. One milliliter of the suspension was taken and cultured at 37°C for 5 hours on a 24 well tissue culture dish. Then, the medium was replaced by 1 ml of DME-1% CS followed by culturing at 37°C for 48 hours. A sample (2 to 20 µl) was added thereto, followed by culturing for further 16 hours.
(§3) Then, 10 µl of 2 x 10⁻⁵ M[³H]thymidine (40 µCi/ml) was supplemented. After culturing for 3 hours, radioactivity incorporated into DNA fraction was measured. That is, after the medium was removed, cells were rinsed with 1 ml of PBS (phosphate-buffered saline) once and 3 times with 1 ml of cold 10% TCA (trichloroacetic acid). Then, 1 ml of 0.5 M NaOH was added thereto. After allowing to stand at room temperature for 15 minutes, the mixture was neutralized with 5 M HCl. Scintillator cocktail, 6 ml, was added thereto to measure the radioactivity.
After commercially available FGF (5 µg/ml) added with 1% CHAPS or added with no CHAPS was allowed to stand at 50°C for 1 hour, stability of FGF was examined. […]

BALB/C3T3 cells [2] = experiment: Adsorption of FGF to containers of different kinds, with or without CHAPS (FGF activity after storage); assay type: physicochemical, mouse; conditions: addition of 0.1% CHAPS; FGF 0.5 µg/ml PBS; 4°C for 2 days
Description: as §1, §2
as §3, with “After allowing to stand at room temperature for 15 minutes, the mixture was neutralized with 5 M HCl.” left out
Commercially available FGF (fibroblast growth factor) was charged in containers shown in Table 1, respectively, in 0.5 µg/ml PBS; the containers were charged with or without 0.1% CHAPS. After storing at 4°C for 2 days, FGF activity in each container was measured.

[3] = Solubility in water and organic solvents; assay type: physicochemical
Description: That is, CHAPS or CHAPSO can be removed by utilizing difference in solubility in organic solvents. CHAPS or CHAPSO is soluble in water, methanol and dimethylsulfoxide but insoluble in other solvents (acetone, acetonitrile, ether, chloroform, 2-methyl-1-propanol, N,N-dimethylformamide, isoamly alcohol, ethanol, hexane, xylene, petroleum ether, benzene, n-heptane, toluene). Utilizing the difference in solubility, CHAPS or CHAPSO can easily be removed.

BALB/C3T3 fibroblasts = experiment: Cytotoxicity of dispersants: DNA synthesis activity ([3H]thymidine incorporation) in cultured fibroblasts; assay type: cell-based, mouse; conditions: added to medium at 1 x 10⁻⁴ to 1 x 10⁻¹%, culture 19 hours; compared with NOG, SB12, Triton X-100, NP-40
Description: Upon culturing BALB/C3T3 fibroblasts in bovine serum-supplemented medium on a 24 well plate, CHAPS, NOG (1-O-n-octyl-β-D-glucopyranoside), SB12 (3-(dodecylmethylammonio)-1-propane sulfonate: sulfobetaine 12), Triton X-100 and NP-40 (Nonidet P-40) were added to the medium at concentrations of 1 x l0⁻⁴ to 1 x 10⁻¹%.
as §2, §3

[4] = Heparin-5PW HPLC of extract from BPH tissues with or without CHAPS (elution of FGF activity); assay type: physicochemical, human; conditions: Heparin-5PW HPLC of BPH tissue extract, 0.1% CHAPS versus no CHAPS
Description: An extract from human benign prostatic hypertrophy (BPH) tissues was subjected to Heparin-5PW HPLC without adding any CHAPS thereto.
An extract from BPH tissues was subjected to Heparin-5PW HPLC in the presence of 0.1% CHAPS thereto.

[5] = in other solvents (acetone, acetonitrile, ether, chloroform, 2-methyl-1-propanol, N,N-dimethylformamide, isoamyl alcohol, ethanol, hexane, xylene, petroleum ether, benzene, n-heptane, toluene)
[6] = in water, methanol and dimethylsulfoxide

C[C@H](CCC(=O)NCCC[N+](C)(C)CCCS(=O)(=O)[O-])[C@H]1CC[C@H]2[C@@H]3[C@H](O)C[C@@H]4C[C@H](O)CC[C@]4(C)[C@H]3C[C@H](O)[C@]12C [CHAPS, 3-[(3-cholamidopropyl)dimethylammonio]-1-propane sulfonate]
effect on thermal instability of FGF (BALB/C3T3 cells [1]): stabilizing effect
adsorption of FGF onto the containers (BALB/C3T3 cells [2]): effectively prevented
solubility [3, 5]: insoluble
solubility [3, 6]: soluble
cytotoxicity (DNA synthesis activity) (BALB/C3T3 fibroblasts): least cytotoxicity among various surface active agents
adsorption of FGF onto carrier and device during chromatographies [4]: prevents adsorption of FGF onto a carrier and device

C[C@H](CCC(=O)NCCC[N+](C)(C)CC(O)CS(=O)(=O)[O-])[C@H]1CC[C@H]2[C@@H]3[C@H](O)C[C@@H]4C[C@H](O)CC[C@]4(C)[C@H]3C[C@H](O)[C@]12C (some centres unmarked) [CHAPSO, 3-(3-cholamidopropyl)dimethylammonio]-2-hydroxy-1-propane sulfonate]
solubility [3, 5]: insoluble
solubility [3, 6]: soluble
